Earlier results, collected in patent publication US4916151A, “Method of treating parkinson's syndrome” (Merrell Dow Pharmaceuticals Inc., priority 1989, dated 1990).

Columns and labels:
MAO = details: literature; selectivity lost as dosage is increased
depression = details: literature reports
[1] = literature

| SMILES | preferential inhibition of MAO-A or MAO-B (MAO) | clinical antidepressant effect (depression) | potentiation of L-dopa for treatment of Parkinson's disease [1] |
| --- | --- | --- | --- |
| Cc1cc(C(=O)NNCc2ccccc2)no1 [isocarboxazid] | not preferential in their action upon MAO |  |  |
| C#CCN(C)CCCOc1ccc(Cl)cc1Cl [clorgyline] |  | clinically effective antidepressant agents |  |
| N[C@@H]1C[C@H]1c1ccccc1 (relative stereo) [tranylcypromine] | not preferential in their action upon MAO |  |  |
| NNCCc1ccccc1 [phenelzine] | not preferential in their action upon MAO |  |  |
| C#CCN(C)Cc1ccccc1 [pargyline] | MAO-B is preferentially inhibited | clinically effective antidepressant agents |  |
| C#CCN(C)[C@H](C)Cc1ccccc1 [L-deprenyl] | MAO-B is preferentially inhibited | clinically effective antidepressant agents | potentiate L-dopa for the treatment of Parkinson's disease without producing peripheral side effects |
